# Data reported in US5225425A, “Bis-aryl amide antagonists of platelet activating factor” (American Cyanamid Company, priority 1992, dated 1993).
# Several values for one entry are separate records, joined by “and”; a condition that tells them apart may be missing. Equal values may be shown once.
# What was measured:
# PAF = PAF induced lethality in mice; assay type: in vivo; details: PAF 150 μg/kg IV
# Protocol: PAF given I.V. to mice causes an immediate hypotensive shock leading to death in 1 hour or less. […] Animals alive after 2 hours are counted and the activity of test compounds expressed as % survival corrected for any control (saline treated) animals which survived the PAF challenge.
# LPS endotoxin [1] = test: Low dose, chronic mouse endotoxemia (LPS endotoxin); assay type: in vivo, Male Balb/c mice; details: dose 10 mg/kg i.p.; day 6; LPS 20 mg/kg i.p.
# Text: (§1) Endotoxin administration produces a shock-like state characterized by vascular permeability changes, hypotension, neutropenia, thrombocytopenia,multiple organ damage and death. The major mediators released after endotoxin injection are TNF (tumor necrosis factor), PAF (platelet activating factor) and […] (interleukin I). PAF administration mimics the signs and symptoms of endotoxin induced shock and death and endotoxin also induces the release of PAF. Therefore, the effects of endotoxin should be blocked with a PAF antagonist.
# (§2) Male Balb/c mice (approximately 20 g) are obtained from Charles River Laboratories and used after a one-two week acclimation period. Animals are given (ip) test compound dissolved in saline or water (sonicated and heated) at different time intervals prior to and after the ip injection of endotoxin (usually 2 hours before LPS endotoxin, and 3-4 hours after). Sigma E. Coli endotoxin, 0111:B4, phenol extraction, catalog #L2630 is used for these studies.
# For the chronic endotoxin shock model, a lower dose of endotoxin is administered (generally 15 to 20 mg/kg i.p). This dose gives an LD80 in two to four days following LPS administration. Test compounds are given 2 hours before LPS and 3-4 hours after on the first day, followed by 3 or 4 consecutive days of BID dosing. The number of survivors in each group is recorded each day for a period of 5 to 7 days.
# All mice challenged with LPS endotoxin = 20 mg/kg i.p.
# CL test cpd given 2 hours before and 3-4 hours after LPS challenge on day
# 0, followed by BID dosing for 3-4 days.
# LPS endotoxin [2] = test: High dose acute mouse endotoxemia (LPS endotoxin induced mortality); assay type: in vivo, Male Balb/c mice; details: for % Survival / survivors/total: i.p., LPS 50 mg/kg ip
# Text: as §1, §2
# This LD value is approximately 50 mg/kg i.p. The number of survivors in each group (control or treated with test compound) is recorded after 24, 48 or 72 hours and the treated groups (receiving test compound and endotoxin) are compared with the untreated, control group (receiving endotoxin only) or saline control (receiving saline and endotoxin).
# LPS Endotoxin challenge = 50 mg/kg ip
# Test cpd given 2 hrs. before and 3-4 hrs. after LPS challenge on day 0,
# followed by BID dosing for 3-4 days.
# PAF receptor = molecular target: T1, PAF receptor (Oryctolagus cuniculus, UniProt G1TEI7); test: Inhibition of PAF induced platelet aggregation in rabbit platelet rich plasma; assay type: cell-based, rabbit (New Zealand White)
# T1 construct: centrifuged at 800 rpm for 10-15 minutes at room temperature to recover the platelet rich plasma (PRP); from tissue; host or cells: platelets in platelet rich plasma from blood of male New Zealand White rabbits
# Protocol: Test compounds are evaluated as PAF receptor antagonists in vitro by measuring inhibition of PAF (platelet activating factor) induced platelet aggregation. Platelet aggregation is measured by a modification of the method described in […], et. al., J. Med. Chem., 27 1174, 1984. […] All syringes and pipets are plastic. The blood is gently mixed and immediately centrifuged at 800 rpm for 10-15 minutes at room temperature to recover the platelet rich plasma (PRP). Platelet poor plasma (PPP) is prepared by centrifuging PRP at 2800 rpm for 10 minutes at room temperature. Dilutions (1:3000) of PRP in Isotone diluent are made and platelet counts are determined on a Coulter Thrombocounter which is standardized with platelet reference standards (Interscience Platelet Control, Portland, Oreg.). PRP platelet counts are adjusted to approximately 400,000-500,000 platelets/μl by the addition of PPP. L-PAF (Platelet Activating Factor) is obtained from Calbiochem. […] All solutions are made up in plastic tubes, stored on ice and protected from heat and light. Solutions are prepared fresh or frozen at -20° C. and used within 48 hours. Incubation mixtures consisted of 400 μl PRP, 50 μl of saline diluent or test compound and 50 μl of PAF agonist. More specifically, 400μl of PRP is stabilized in a cuvette for 1-2 minutes at 37° C. in the aggregometer to achieve a stable baseline, then 50 μl of saline or test compound is added and incubated for 5 minutes before addition of the challenge concentration of pAF. A submaximal concentration is determined from the dose response curve for PAF for that experiment. In general, the challenge concentration is 5E-8 or 1E-7M. Aggregation is monitored for 5 minutes. Samples containing test compound or diluent are run simultaneously for comparison. Test compounds are initially evaluated at a screening concentration of 1E-5M. […] The recording equipment consists of a dual channel Chronolog aggregometer connected to a dual channel 10MV full scale deflection Omniscribe chart recorder (Houston Instruments). The chart recorder is calibrated daily with the use of a suspension of Bio-Rad latex beads (S-X 12 400 mesh) which has a density slightly greater than rabbit PRP. […] These limits defined a full scale deflection. The aggregation traces are analyzed by a digitizing method (C. Kohler and B. Zoltan, J. Pharm. Methods, 12, 113, 1984) with x, y coordinate data stored in a computer file. A suitable program computes parameters of interest such as the magnitude of aggregation.
# T1 sequence (G1TEI7 1-342): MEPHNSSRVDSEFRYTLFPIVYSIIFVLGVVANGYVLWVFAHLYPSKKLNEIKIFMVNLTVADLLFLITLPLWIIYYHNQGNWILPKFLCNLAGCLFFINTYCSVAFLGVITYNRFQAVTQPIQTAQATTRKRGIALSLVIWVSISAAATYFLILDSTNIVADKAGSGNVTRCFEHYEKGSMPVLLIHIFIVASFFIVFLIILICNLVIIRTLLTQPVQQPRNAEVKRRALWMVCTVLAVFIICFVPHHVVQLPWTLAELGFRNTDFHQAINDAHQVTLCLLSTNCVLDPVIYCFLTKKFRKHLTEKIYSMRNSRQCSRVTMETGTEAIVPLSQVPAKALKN
structure (smiles),measurement,setting,value
CCCCCCCCCCCCCCOc1cccc(CC(=O)Nc2cccc(C[n+]3csc(C)c3)c2)c1.[Br-] [5-methyl-3-[[3-[[[3-(tetradecyloxy)phenyl]acetyl]amino]phenyl]methyl]thiazolium bromide],% Survival,PAF; 5 mg/kg P.O.,40%
same,% Survival,PAF; 20 mg/kg P.O.,59%
same,% Survival,LPS endotoxin [1],43%
same,% Survival,LPS endotoxin [2]; day 0,100%
same,survivors/total,LPS endotoxin [2]; day 0,30/30
same,% Survival,LPS endotoxin [2]; day 1,40%
same,survivors/total,LPS endotoxin [2]; day 1,12/30
same,% Survival,LPS endotoxin [2]; day 2,13%
same,survivors/total,LPS endotoxin [2]; day 2,4/30
same,% Survival,LPS endotoxin [2]; day 3,10%
same,survivors/total,LPS endotoxin [2]; day 3,3/30
same,% Survival,LPS endotoxin [2]; day 4,10%
same,survivors/total,LPS endotoxin [2]; day 4,3/30
same,activity when administered ip prior to a lethal ip injection of endotoxin,"LPS endotoxin [2]; ip, in words",some activity
same,IC50,PAF receptor; PAF challenge 5.0000E-08 M,0.49 µM and 1.27 µM
same,IC50,PAF receptor; PAF challenge 5E-9 M,1.06 µM
same,inhibition at 10 µM,"PAF receptor; dose .00001 M, PAF challenge 5E-9 M, read-out: % INH of PAF induced platelet aggregation",100%
